Read-outs that look alike come from different tables or passages of the source.
System: THP1 cells
Assay: Inhibition of binding and accumulation of cyanine 3-marked LDLox as lipid vesicles in differentiated THP1 macrophage cells
Assay type: cell-based
Description: The culture medium may be replaced every two days.
In the present example, the accumulation of lipid vesicles within the cell was measured using THP1 cells following fixation with paraformaldehyde in PBS medium using a solution containing a fluorescent marker of the Oil Red O type in order to visualise the vesicles. The image of the cells rich in vesicles was analysed using a microscope ecqluipped with a CCD camera and software necessary for the analysis.
The medium was replaced every 2-3 days.
The differentiated THP-1 were subsequently incubated with LDLox coupled with cyanine-3 (1.5 μg/ml) in the presence or absence of the molecule CGP02-01 (concentrations of between 10^−5M and 3.1.6 10^−10M) for 24 hours at 37° C., 5% CO2. […] Each image was analysed and quantified with the MetaMorph software (Universal Imaging).

With COc1cc(O)c(/C=N/NC(=O)c2cc3ccccc3s2)c(OC)c1 [CGP02-01, N′-[(1E)-(2-hydroxy-4,6-dimethoxyphenyl)methylene]-1-benzothiophene-2-carbohydrazide] the “Inhibition of the accumulation of lipid vesicles” value (1 μM, differentiated THP1 macrophage cells) was “major inhibition”, the inhibition at 2.5 µM (Homo sapiens, THP-1, cells expressing the scavenger CD36, lipoproteins marked with cyanine 3, read-out: Inhibition of accumulation of LDLox in (%)) was 76% and the IC50 (Homo sapiens, THP-1, lipoproteins marked with Cyanine 3, dose response curve, FIG. 1, read-out: CI50, accumulation of lipid vesicles in macrophage cell) was 500 nM. For the same compound, the inhibition at 2.5 µM (Homo sapiens, THP-1 cells, 24 hours, read-out: Inhibition at 2.5 μM on THP-1 cells (24 hours)) was 76%.

— US20070161697A1, “Hydrazide type compounds and the use thereof in pharmaceutical compositions for the treatment of cardiovascular diseases” (priority 2004, published 2007)
